Experimental data as given in patent US9139615B2, “High-affinity, dimeric inhibitors of PSD-95 as efficient neuroprotectants against ischemic brain damage and for treatment of pain” (University of Copenhagen, priority 2011, dated 2015).
Entries after “also recorded” stand apart in the source; their conditions may differ. Where no end group is shown, it is not given here.

How the values were obtained:
[1] = tested on: pMCAO model of ischemic stroke; test: Grip strength after pMCAO; format: in vivo, mice; details: 48 hours after pMCAO, 3 nmol/g i.v.
Method: The grip strength meter (BIO-GT-3, BIOSEB) allows the study of neuromuscular functions in mice by determining the maximum force that is required to make the mouse release its grip. The grip strength in individual paws was used to measure the severity of the pMCAO-induced asymmetry. The mouse is allowed to grasp a metal grid and then pulled backwards in the horizontal plane. The force applied to the grid is recorded as the peak tension. The strength of individual front paws and the total grip strength (both paws simultaneously) were measured before (baseline) and after pMCAO. Each mouse is tested in 5 sequential trials and the highest grip strength is recorded as the best score.

[2] = Blood-brain barrier permeability of fluorescent analogues; format: in vivo, mice; details: mice, conclusion for unlabeled compounds
Method: VI.ii. Blood-brain Barrier Permeability. […] After injection of the compounds, the mice are perfused with paraformaldehyde and the brains are carefully removed, post-fixed in paraformaldehyde, processed into coronal sections, and quantified for fluorescence (Example 8).
The fluorescent ligands were injected intravenously (3 nmol/g) and the location of the ligands was detected by fluorescence microscopy of coronal brain slices (n=8) mice, was evaluated 2 hours after injection. Two sections of the brain, prior to and two after the anterior commissure (n=5), were selected for BBB permeability analysis. The anterior commissure (Bregma: −0.3) was used as a fix point in the brain in order to analyse anatomically identical brain sections. The intensity of the 5-FAM fluorophore was measured semi-quantitatively using a fluorescence microscopy system (Olympus System Microscope model BX-51, Denmark) with a 10× objective (Olympus 10×/0.15 UPlanApo) connected to a high-resolution microscope digital camera (Olympus model DP70), which transferred images to an image-capturing software (Image Pro Plus software). All images were taken using the same microscope settings and with constant camera exposure time. Intensities were quantified using the ImageJ software.
5-FAM-labeled derivative of Tat-NR2B9c is designated MS23. After injection of the compounds, the mice are perfused with paraformaldehyde and the brains are carefully removed, post-fixed in paraformaldehyde, processed into coronal sections, and quantified for fluorescence.
C57BL/6 mice with 6 hour post-surgical survival time were euthanized by cervical dislocation. C57BL/6 mice with 48 hour post-surgical survival were anesthetized with an overdosed of pentobarbital (the pharmacy of the Faculty of Life Sciences, University of Copenhagen, Denmark) in order to collect blood and tissue samples. All brains were carefully removed, frozen in gaseous CO2 and cut into 6 series of 30 μm coronal cryostat sections and stored at −80° C. until further use. C57BL/6J mice used to investigate the blood-brain barrier (BBB) permeability of AB143, AB145, AB148, and MS23 were deeply anesthetized and perfused through the left ventricle, using 10 ml chilled Soerensens phosphate buffer (SB) ([…], 125 mM Na2HPO4, pH 7.4) followed by 20 mL SB containing 4% paraformaldehyde (PFA). The brains were carefully removed and post-fixed in 4% PFA for 1 hour followed by immersion in SB containing 20% sucrose over night. The brains were frozen on gaseous CO2 and processed into 16 μm coronal cryostat sections.

[3] = Spinal cord detection of fluorescent PSD-95 inhibitors; format: in vivo, mice; details: conclusion for unlabeled compounds
Method: To investigate if AB143 and AB145 are able to enter spinal cord tissue, they were administered to the mice by intraperitoneal injection (30 mg/kg). The drug-treated mice were decapitated 30 min after injection, and the spinal cord was carefully dissected out, to which 5% trichloroacetic acid (TCA) (300 μL per 0.1 g tissue) was added and the tissue homogenized with an ultrasonic homogenizer (on ice). The homogenated tissue was vortexed and centrifuged for 10 min (20000 g at 4° C.). The supernatant was transferred to a test tube and evaporated, and the residue was reconstituted in water and its fluoresence intensity was determined by using a fluorescence plate reader (excitation/emission:470/525 nm). For quantification of the compounds, a standard curve was prepared by spiking a known amount of AB143 and AB145 into spinal cord tissue from control mice prior to homogenization, followed by work-up and analysis similar to the drug-treated mice.

[4] = tested on: pMCAO model of ischemic stroke; test: Rotarod performance test after pMCAO; format: in vivo, mice; details: 48 hours after pMCAO; for total time spent on the rod: 3 nmol/g i.v., four trials
Method: The rotarod (LE 8200, Panlab) is well suited to evaluate motor activity in rodents, experimental compound effects on central nervous system damage, or disease effects on motor coordination, assessed by the time during which the animal remains walking in a rotating drum. The rotation of the rotarod is motor drived and accelerates from 0 to 40 rounds per min (rpm) over a time period of 5 min, at which time all mice have fallen off the rod. All mice were tested in 4 repeating trials with a 20 min interval (resting time). Prior to surgery mice were pre-trained to stay on the rod for 30 seconds, at 4 rpm.

[5] = Human blood plasma stability assay; format: in vitro ADME; details: human, plasma; 0.25 mM, 37° C., in vitro; read-out: half-life (T1/2) in human blood plasma
Method: Ligands (dimeric PSD-95 inhibitors) for the PDZ domain of PSD-95 were dissolved in human blood plasma (270 μL; 3H Biomedical, Sweden, cat no 1300-1-P50) to a concentration of 0.25 mM (30 μL, of 2.5 mM) and incubated at 37° C. Aliquots (30 μL) were removed at various time intervals (e.g. 0, 5, 10, 20, 40, 80, 160, 320, 960, 1280, 2550, 4560 and 7240 min) and quenched with 60 μL, trichloroacetic acid (aq., 5%). The aliquots were vortexed, and incubated 15 min, at 4° C. prior to centrifugation at 18,000 g for 2 min. The supernatants were analyzed by analytical RP-HPLC (UV218) to quantify compound relative to time zero, and also evaluated qualitatively by ESI-LC/MS in order to identify the compound (m/z) in the sample. Procaine (positive control) and procainamide (negative control) were investigated at 50 μM to validate the procedure. Ligand recoveries following the precipitation procedure were between 85-95%.

[6] = Physiological status of pMCAO mice (blood values, body weight, temperature, survival); format: in vivo; details: pMCAO 48 h experiment, 1 hour after surgery, mean ± SEM
Method: The physiological status of the mice was carefully monitored prior to and during pMCAO surgery in order to exclude the observed effects of treatment with dimeric PSD-95 inhibitors being due to secondary conditions (e.g. disease-related) resulting from the experimental procedure.
9.10 Body weight monitoring: The body weight of each mouse was registered during pre-training, before surgery, and at 24 and 48 hours after surgery and no differences were seen between the treatment groups (FIG. 13).
9.11 Temperature monitoring: The rectal temperature of the mouse was continuously measured using a thermocoupled probe connected to a Model Bat 12 unit (Physitemp). The temperature was measured prior to and 30 min after pMCAO in addition to 30 min and 2.5 hours after i.v. injection, i.e. 1 and 3 hours after pMCAO.
9.12 Blood gas analysis: One samples of venous blood was taken for blood gas analysis of PO2/PCO2 electrolytes, glucose, lactate, and hematocrit, 30 min after compound administration (1 hour after pMCAO). A capillary heparin coated tube was inserted along the inner corner of eye and turned until it penetrated the conjunctiva. A sample of blood (150 μl) was collected and stored on ice until gas analysis using the GEM Premier 300 blood gas instrument (Instrumentation Laboratory) Quality controls (QC ContrlIL9) were purchased from IL Sensor Systems. Also, no differences were detected in blood gas parameters (PO2/PCO2, pH, electrolytes, glu/lac), which were similar between the groups and within normal range, when compared to unmanipulated control mice (Table 4).

[7] = tested on: CFA-induced mechanical allodynia/hyperalgesia; test: Complete Freund's adjuvant (CFA) inflammatory pain, von Frey test; format: in vivo, mice; details: administered concurrently with CFA, 1 hour and 24 hours after treatment
[8] = tested on: pMCAO model of cerebral focal ischemia; test: pMCAO model of cerebral focal ischemia, infarct volume; format: in vivo, mice; details: 3 nmol/g i.v. 30 min after pMCAO

Molecule | grip strength asymmetry between right and left front paw [1] | total grip strength (both paws) compared to baseline [1] | ability to enter the brain (concluded from fluorescent surrogates) [2] | ability to enter spinal cord tissue (concluded from fluorescent surrogates) [3] | total time spent on the rod [4] [s] | short term learning skill improvement on rotarod compared to saline ([4]; trials T1-T4) | half-life at 0.25 mM [5] [h] | blood pH ([6]; 3 nmol/g i.v.) | Hct [6] [%] | [Ca2+] [6] [mmol/L] | [K+] [6] [mmol/L] | [Lactate] [6] [mmol/L] | [Na+] [6] [mmol/L] | pCO2 [6] [mmHg] | pO2 [6] [mmHg] | CFA-induced mechanical hyperalgesia [7] | reduction of ischemic tissue damage (infarct volume) compared to saline ([8]; 6 hour post-surgical survival) | reduction in infarct size compared to saline ([8]; 48 hours after pMCAO)
CC[C@H](C)[C@H](NC(=O)CCOCCOCCN(CCOCCOCCC(=O)N[C@H](C(=O)N[C@@H](CCC(=O)O)C(=O)N[C@H](C(=O)N[C@@H](CC(=O)O)C(=O)N[C@H](C(=O)O)C(C)C)[C@@H](C)O)[C@@H](C)CC)C(=O)[C@H](CCCNC(=N)N)NC(=O)[C@H](CCCNC(=N)N)NC(=O)[C@H](CCCNC(=N)N)NC(=O)[C@H](CCC(N)=O)NC(=O)[C@H](CCCNC(=N)N)NC(=O)[C@H](CCCNC(=N)N)NC(=O)[C@H](CCCCN)NC(=O)[C@H](CCCCN)NC(=O)[C@H](CCCNC(=N)N)NC(=O)CNC(=O)[C@@H](N)Cc1ccc(O)cc1)C(=O)N[C@@H](CCC(=O)O)C(=O)N[C@H](C(=O)N[C@@H](CC(=O)O)C(=O)N[C@H](C(=O)O)C(C)C)[C@@H](C)O [AB144, Tat-NPEG4(IETDV)2] | no asymmetry and not | no significant change in total grip strength; also recorded: No difference compared to baseline | ability to cross the blood-brain barrier; also recorded: able to enter the brain | able to enter CNS spinal cord tissue at relevant concentrations | 83.5 ± 4.1 | more pronounced short term learning skill improvement | 81.7 ± 1.67 | 7.16 ± 0.01 | 43.5 ± 0.9 | 1.30 ± 0.02 | 5.2 ± 0.20 | 0.93 ± 0.07 | 148 ± 2.0 | 95.7 ± 2.3 | 50.2 ± 2.2 | prevented the development of CFA-induced mechanical hyperalgesia |  | 
YGRKKRRQRRRKLSSIESDV [Tat-NR2B9c, reference compound] | observed | lost a significant amount of grip strength; also recorded: significant reduced grip strength |  |  | 65.7 ± 3.6 |  |  |  |  |  |  |  |  |  |  |  | did not provide a statistically significant reduction; also recorded: not achieved | no statistically significant infarct reduction
